Experimental data as given in patent US20220153734A1, “Pyrazolopyridine Compounds For IRE1 Inhibition” (Optikira, LLC, priority 2019, published 2022).

Experiments:
IRE1α [1] = molecular target: T1, IRE1α (Homo sapiens, UniProt O75460); assay: Biochemical assay to detect inhibition of kinase activity of IRE1α (ADP-Glo)
T1 construct: purchased Signal Chem E31-11G
Procedure: Biochemical Assays to Detect Inhibition of Kinase Activity of IRE1α
The kinase reactions were performed in 384 well white ProxiPlate-384 Plus plates (PERKIN Elmer 6008280) using 25 mM MOPS assay buffer with 1 mM dithiothreitol, 25 mM MgCl2, 12.5 mM β-glycerophosphate, 5 mM EGTA, and 50 μg/mL BSA. Test compounds were prepared on the day of assay and dispensed using D300 digital dispenser as a 10-point ½ log dilution series in duplicate, normalized to a final DMSO concentration of 3%. Test compounds were pre-incubated for 30 min at room temperature with 10 nM IRE1α kinase (E31-11G from Signal Chem) in 2.5 μL of assay buffer and the reaction started by addition of 2.5 μL of ATP in assay buffer, to give a final ATP concentration of 100 μM and 5 nM IRE1α kinase. After 4 hours incubation at room temperature the reactions were stopped and the kinase activity determined using the ADP-Glo™ reagent from Promega, according to the manufacturer's instructions. Luminescence was measured on a luminometer (EnVision, PerkinElmer) and IC50 values calculated by fitting a sigmoidal curve to percent inhibition of control versus Log10 of compound concentration.

[2] = tested on: ARPE-19 cells stably expressing XBP1 (a.a. 1-376); assay: Cellular XBP1 splicing assay (NanoLuc luciferase, thapsigargin); assay type: cell-based; details: thapsigargin 150 nM
Outline: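 ARPE-19 cells carrying an XBP1(1-376)-NanoLuc splicing reporter were pretreated with compound (10-point ½-log series, 0.117% DMSO) for 30 min, then stressed with 150 nM thapsigargin for 4 h at 37° C. Luminescence was read, and IC50 values came from sigmoidal fits of percent inhibition of control.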

IRE1α [3] = molecular target: T1, IRE1α; assay: Biochemical assay: inhibition of RNase activity of IRE1α; details: enzyme 0.325 nM, substrate 100 nM, 20 minutes
Outline: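 Recombinant IRE1α (0.325 nM final) pre-incubated 30 min at room temperature with compounds (10-point ½-log series, duplicate, 4% DMSO final). Then 100 nM fluorophore/quencher-labelled RNA substrate added in 50 mM Tris, 0.5 mM MgCl2, 10 mM KCl, 2 mM DTT. Urea stop after 20 min; fluorescence read; IC50 from sigmoidal fit.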

T1 sequence (O75460 468-977 limits assumed): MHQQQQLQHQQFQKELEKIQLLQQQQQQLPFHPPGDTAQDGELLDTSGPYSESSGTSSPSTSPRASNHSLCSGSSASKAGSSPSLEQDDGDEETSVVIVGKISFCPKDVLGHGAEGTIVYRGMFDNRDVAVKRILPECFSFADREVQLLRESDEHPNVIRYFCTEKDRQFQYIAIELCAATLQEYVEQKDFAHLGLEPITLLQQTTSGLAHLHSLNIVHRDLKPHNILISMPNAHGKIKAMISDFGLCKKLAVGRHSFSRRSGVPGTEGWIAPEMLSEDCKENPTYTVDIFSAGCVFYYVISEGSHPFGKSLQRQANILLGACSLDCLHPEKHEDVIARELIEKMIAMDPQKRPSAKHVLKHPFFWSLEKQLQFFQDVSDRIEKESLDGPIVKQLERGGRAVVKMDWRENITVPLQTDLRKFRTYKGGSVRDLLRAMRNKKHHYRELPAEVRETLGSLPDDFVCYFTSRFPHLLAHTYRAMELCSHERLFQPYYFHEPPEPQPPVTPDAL

IC50 (IRE1α [1]) [nM] | IC50 ([2]; Homo sapiens, ARPE-19, 4 h) [nM] | IC50 (IRE1α [3]) [nM] | IC50 ([2]; 4 hour) [nM] | Compound
3.2 | 52 | 5.4 |  | CCn1nc(-c2cc(F)c(NS(=O)(=O)Cc3ccccc3F)cc2F)c2c(N)ncc([C@H]3CC[C@H](NC4COC4)CC3)c21 [Compound A43, N-(4-(4-amino-1-ethyl-7-((1r,4r)-4-(oxetan-3-ylamino)cyclohexyl)-1H-pyrazolo[4,3-c]pyridin-3-yl)-2,5-difluorophenyl)-1-(2-fluorophenyl)methanesulfonamide]
1.9 | 9.2 | 1.5 |  | CCn1nc(-c2ccc(NS(=O)(=O)Cc3ccccc3F)c(F)c2)c2c(N)ncc([C@H]3CC[C@H](NC4COC4)CC3)c21 [Compound A53, N-(4-(4-amino-1-ethyl-7-((1r,4r)-4-(oxetan-3-ylamino)cyclohexyl)-1H-pyrazolo[4,3-c]pyridin-3-yl)-2-fluorophenyl)-1-(2-fluorophenyl)methanesulfonamide]
6.5 | 94 | 16 |  | CCn1nc(-c2cc(F)c(NS(=O)(=O)c3ccccc3F)cc2F)c2c(N)ncc([C@H]3CC[C@H](NC4COC4)CC3)c21 [Compound A45, N-(4-(4-amino-1-ethyl-7-((1r,4r)-4-(oxetan-3-ylamino)cyclohexyl)-1H-pyrazolo[4,3-c]pyridin-3-yl)-2,5-difluorophenyl)-2-fluorobenzenesulfonamide]
1.8 |  | 1.6 | 14 | CC(C)n1nc(-c2ccc(NS(=O)(=O)Cc3ccccc3Cl)c(F)c2)c2c(N)ncc(C3=CCC(NC4COC4)CC3)c21 (single isomer, unassigned) [Compound B12, N-(4-(4-amino-1-isopropyl-7-(4-(oxetan-3-ylamino)cyclohex-1-en-1-yl)-1H-pyrazolo[4,3-c]pyridin-3-yl)-2-fluorophenyl)-1-(2-chlorophenyl)methanesulfonamide]
3 | 4.3 | 3.5 |  | CC(C)n1nc(-c2ccc(NS(=O)(=O)c3ccccc3Cl)c(F)c2)c2c(N)ncc([C@H]3CC[C@H](NC4COC4)CC3)c21 [Compound A34, N-(4-(4-amino-1-isopropyl-7-((1r,4r)-4-(oxetan-3-ylamino)cyclohexyl)-1H-pyrazolo[4,3-c]pyridin-3-yl)-2-fluorophenyl)-2-chlorobenzenesulfonamide]
3.3 | 17 | 6.9 |  | CC(C)n1nc(-c2cc(F)c(NS(=O)(=O)c3ccccc3F)cc2F)c2c(N)ncc([C@H]3CC[C@H](NC4COC4)CC3)c21 [Compound A50, N-(4-(4-amino-1-isopropyl-7-((1r,4r)-4-(oxetan-3-ylamino)cyclohexyl)-1H-pyrazolo[4,3-c]pyridin-3-yl)-2,5-difluorophenyl)-2-fluorobenzenesulfonamide]
5.2 |  | 5.1 | 47 | CC(C)n1nc(-c2cc(F)c(NS(=O)(=O)Cc3ccccc3Cl)cc2F)c2c(N)ncc(C3=CCC(NC4COC4)CC3)c21 (single isomer, unassigned) [Compound B6, N-(4-(4-amino-1-isopropyl-7-(4-(oxetan-3-ylamino)cyclohex-1-en-1-yl)-1H-pyrazolo[4,3-c]pyridin-3-yl)-2,5-difluorophenyl)-1-(2-chlorophenyl)methanesulfonamide]
4.1 |  | 2.7 | 22 | CCn1nc(-c2ccc(NS(=O)(=O)Cc3ccccc3F)c(F)c2)c2c(N)ncc(C3=CCC(NC4COC4)CC3)c21 (single isomer, unassigned) [Compound B26, N-(4-(4-amino-1-ethyl-7-(4-(oxetan-3-ylamino)cyclohex-1-en-1-yl)-1H-pyrazolo[4,3-c]pyridin-3-yl)-2-fluorophenyl)-1-(2-fluorophenyl)methanesulfonamide]
7 |  | 13 | 57 | CC(C)n1nc(-c2cc(F)c(NS(=O)(=O)c3ccccc3Cl)cc2F)c2c(N)ncc(C3=CCC(NC4COC4)CC3)c21 (single isomer, unassigned) [Compound B10, N-(4-(4-amino-1-isopropyl-7-(4-(oxetan-3-ylamino)cyc1ohex-1-en-1-yl)-1H-pyrazolo[4,3-c]pyridin-3-yl)-2,5-difluorophenyl)-2-chlorobenzenesulfonamide]
3.6 | 8.4 | 7.7 |  | CC(C)n1nc(-c2ccc(NS(=O)(=O)c3ccccc3F)c(F)c2)c2c(N)ncc([C@H]3CC[C@H](N(C)C4COC4)CC3)c21 [Compound A46]
3.9 |  | 2.4 | 27 | CCn1nc(-c2ccc(NS(=O)(=O)Cc3ccccc3Cl)c(F)c2)c2c(N)ncc(C3=CCC(NC4COC4)CC3)c21 (single isomer, unassigned) [Compound B28, N-(4-(4-amino-1-ethyl-7-(4-(oxetan-3-ylamino)cyclohex-1-en-1-yl)-1H-pyrazolo[4,3-c]pyridin-3-yl)-2-fluorophenyl)-1-(2-chlorophenyl)methanesulfonamide]
2.7 | 2 | 0.5 |  | CC(C)n1nc(-c2ccc(NS(=O)(=O)Cc3ccccc3Cl)c(F)c2)c2c(N)ncc([C@H]3CC[C@H](N(C)C)CC3)c21 [Compound A51, N-(4-(4-amino-7-((1r,4r)-4-(dimethylamino)cyclohexyl)-1-isopropyl-1H-pyrazolo[4,3-c]pyridin-3-yl)-2-difluorophenyl)-1-(2-chlorophenyl)methanesulfonamide]
2.1 | 4.3 | 6 |  | CC(C)n1nc(-c2cc(F)c(NS(=O)(=O)c3ccccc3Cl)cc2F)c2c(N)ncc([C@H]3CC[C@H](NC4COC4)CC3)c21 [Compound A49, N-(4-(4-amino-1-isopropyl-7-((1r,4r)-4-(oxetan-3-ylamino)cyclohexyl)-1H-pyrazolo[4,3-c]pyridin-3-yl)-2,5-difluorophenyl)-2-chlorobenzenesulfonamide]
